Consider 13 compounds from patent publication US11230542B2, “Inhibitors of integrated stress response pathway” (Praxis Biotech LLC, priority 2017, dated 2022).

One experiment deals with ATF4. Put plainly: ATF4 expression inhibition assay (thapsigargin-stressed HEK293T cells, western blot). The class given is cell-based. The settings on record: Homo sapiens, HEK-293T; for IC50: 3 h with 100 nM Tg, test compound 1 nM to 1 μM; for inhibition at 0.1 µM: 3 h with 100 nM thapsigargin (Tg) and 100 nM test compound; for inhibition at 0.1 µM / inhibition at 1 µM: Tg alone 0%, untreated 100%; for inhibition at 1 µM: 3 h with 100 nM thapsigargin (Tg) and 1 μM test compound. The protocol: HEK293T cells were maintained at 37° C. and 5% CO2 in Dulbecco's Modified Eagle's Media (DMEM) supplemented with 10% fetal bovine serum (FBS), 2 mM L-glutamine, 100 U/ml penicillin, and 100 μg/ml streptomycin. […] Cells without treatment or cells treated with Tg alone were used as controls.
After 3 hours of treatment with Tg and the test compound, cells were lysed with SDS-PAGE lysis buffer. Lysates were transferred to 1.5 ml tubes and sonicated for 3 min, and total protein amounts were quantified using BCA Protein Assay Kit (Pierce). Equal amount of proteins were loaded on SDS-PAGE gels. Proteins were transferred onto 0.2 μm PVDF membranes (BioRad) and probed with primary antibodies diluted in Tris-buffered saline supplemented with 0.1% Tween 20 and 3% bovine serum albumin.
ATF4 (11815) antibody was used as primary antibody (Cell Signaling Technologies). A horseradish peroxidase (HRP)-conjugated secondary antibody (Rockland) was employed to detect immune-reactive bands using enhanced chemiluminescence (ECL Western Blotting Substrate, Pierce). Quantification of protein bands was done by densitometry using ImageJ.
Percentages of ATF4 inhibition after induction with Tg in the presence of 100 nM or 1 μM of certain test compounds are shown in Table 2 and FIG. 1. Percentage of ATF4 inhibition was calculated as the percent reduction normalized to Tg treatment (0% inhibition) and untreated cells (100% inhibition). Also shown in Table 2 is the calculated IC50 for the test compounds. […] Accordingly, inhibition of ATF4 expression as a result of the test compound indicates suppression of the ISR pathway.
A general note: Immunoblotting shows a protein as a band on a membrane.

The test system of another experiment is CHO cells. Put plainly: Protein translation assay (puromycin incorporation in CHO cells, unstressed or Tg-stressed). It is filed as cell-based, Chinese hamster. Conditions: for activity at 0.1 µM / activity at 1 µM: Cricetulus griseus, media alone 100%; for activity at 0.1 µM: read-out: % Recovery of protein expression (100 nM test compound); for protein translation: summary of Table 3; for protein synthesis in a cell versus ATF4 translation: under ISR-stressed or non-ISR stressed conditions. The protocol: CHO cells were maintained at 37° C. and 5% CO2 in DMEM supplemented with 10% fetal bovine serum (FBS), 2 mM L-glutamine, 100 U/ml penicillin, and 100 μg/ml streptomycin. After reaching 80% of confluence, cells were detached and seeded on 6 well plates in complete media, allowed to recover overnight and treated for 2 hours with 1 μM of the test compound (to assess protein synthesis levels in unstressed condition), or for 1 hour with 100 nM and 1 μM of the test compound and then co-treated with 300 nM Tg and 100 nM and 1 μM of the test compound (to assess the recovery of protein synthesis in a stressed condition). Cells treated with Tg alone were used as controls.
After the 2 hours treatments, media were replaced by adding 10 μg/ml puromycin (Sigma Aldrich) in complete media for 30 min. Media were removed and cells were lysed with SDS-PAGE lysis buffer. Lysates were transferred to 1.5 ml tubes and sonicated for 3 minutes and total protein amount were quantified using BCA Protein Assay Kit (Pierce). Equal amount of protein (30 μg) was loaded on SDS-PAGE gels. Proteins were transferred onto 0.2 μm PVDF membranes (BioRad) and probed with primary antibodies diluted in Tris-buffered saline supplemented with 0.1% Tween 20 and 3% bovine serum albumin.
Puromycin (12D10) antibody was used as primary antibody (Merck Millipore). A HRP-conjugated secondary antibody (Rockland) was employed to detect immune-reactive bands using enhanced chemiluminescence (ECL Western Blotting Substrate, Pierce). Quantification of protein bands was done by densitometry using ImageJ.
Percent increase of protein synthesis in unstressed cells (without Tg treatment) in the presence of media alone or certain test compounds is shown in Table 3 and FIG. 2. The percentage levels were normalized to the media alone condition, which correspond to 100% protein synthesis.
Percent recovery of protein synthesis in stressed cells (with Tg treatment) due to the test compounds at 100 nM or 1 μM is shown in FIGS. 3A and 3B, respectively, and in Table 3. The levels were normalized to the media alone and to Tg alone conditions, which correspond to 100% and 0% respectively.

Setting [1] is: CHO cells stressed with 300 nM Tg, Tg alone 0%.
Where [2] appears, read: CHO cells stressed with 300 nM Tg, Tg alone 0%, read-out: % Recovery of protein expression (1 μM test compound).
[3] abbreviates: unstressed CHO cells, 2 h, read-out: % Protein expression relative to untreated (1 μM test compound).

A word on the IC50: it is the concentration that inhibits the measured activity by half. The term inhibition denotes the percentage by which the read-out fell short of the control. Lower therefore signals little suppression.

Where two headings read alike, the source gives them in different places.

Consider `O=C(COc1ccc(Cl)c(F)c1)NC1CCN(CC(O)COc2ccc(Cl)c(F)c2)CC1` (single isomer, unassigned; (-)) [Compound 26, (−)-2-(4-chloro-3-fluorophenoxy)-N-(1-(3-(4-chloro-3-fluorophenoxy)-2-hydroxypropyl)piperidin-4-yl)acetamide], for which, in the experiment on ATF4, the IC50 was determined as 0.027 µM, testing at 0.1 µM gave an inhibition of 91% and the inhibition at 1 µM stood at 97%. Further, the activity at 0.1 µM in the experiment with CHO cells (setting [1]) came to 34.2%. The activity at 1 µM in the experiment with CHO cells (setting [2]) came to 176%. Besides, the activity at 1 µM in the experiment on CHO cells (setting [3]) came out at 112%.

Consider `O=C(N[C@H]1CC[C@H](NCCOc2ccc(Cl)c(F)c2)CC1)c1cc2cc(Cl)ccc2o1` [Compound 32, trans-5-chloro-N-(4-((2-(4-chloro-3-fluorophenoxy)ethyl)amino)cyclohexyl)benzofuran-2-carboxamide], for which, in the experiment on ATF4, 0.1 µM produced 38% inhibition and the inhibition at 1 µM stood at 78%. Also, the activity at 0.1 µM in the experiment with CHO cells (setting [1]) worked out at 37.7%. Also, in the experiment with CHO cells (setting [2]), the activity at 1 µM is 234%. The activity at 1 µM in the experiment with CHO cells (setting [3]) was 137%.

As for `O=C(NC1CCN(C[C@@H](O)COc2ccc(Cl)c(F)c2)CC1)c1cc2cc(Cl)ccc2o1` (single isomer, unassigned) [Compound 150, (−)-5-chloro-N-(1-(3-(4-chloro-3-fluorophenoxy)-2-hydroxypropyl)piperidin-4-yl)benzofuran-2-carboxamide], in the experiment on ATF4, the inhibition at 0.1 µM worked out at 0% and the inhibition at 1 µM worked out at 43%. Besides, the activity at 0.1 µM in the experiment on CHO cells (setting [1]) worked out at 61%. The activity at 1 µM with CHO cells (setting [2]) is 200%. The activity at 1 µM in the experiment on CHO cells (setting [3]) is 184%. In the experiment on CHO cells, the protein translation entry is reported as “increased protein translation” and the “protein synthesis in a cell versus ATF4 translation” value is “increase protein synthesis in a cell without full inhibition of ATF4 translation”.

Consider `CC1(C)CC(NC(=O)COc2ccc(Cl)c(F)c2)CC(C)(C)N1CC(O)COc1ccc(Cl)c(F)c1` (stereo not drawn) [Compound 25, 2-(4-chloro-3-fluorophenoxy)-N-(1-(3-(4-chloro-3-fluorophenoxy)-2-hydroxypropyl)-2,2,6,6-tetramethylpiperidin-4-yl)acetamide], for which, in the experiment on ATF4, the inhibition at 0.1 µM came to 0% and at 1 µM the inhibition was 0%. The activity at 0.1 µM in the experiment on CHO cells (setting [1]) came to 11.4%. For the same compound, the activity at 1 µM with CHO cells (setting [2]) was found to be 22.9%.

In the experiment with ATF4, `O=C(NC1CCN(C[C@@H](O)COc2ccc(Cl)c(F)c2)CC1)c1ccc2cc(Cl)ccc2n1` (single isomer, unassigned) [Compound 153, (−)-6-chloro-N-(1-(3-(4-chloro-3-fluorophenoxy)-2-hydroxypropyl)piperidin-4-yl)quinoline-2-carboxamide] had an inhibition at 0.1 µM of 0% and an inhibition at 1 µM of 0%. For the same compound, the activity at 0.1 µM in the experiment on CHO cells (setting [1]) turned out to be 51.5%. The activity at 1 µM in the experiment with CHO cells (setting [2]) was 236%. Besides, the activity at 1 µM in the experiment with CHO cells (setting [3]) came to 323%. In the experiment with CHO cells, the protein translation result is given as “increased protein translation” and the “protein synthesis in a cell versus ATF4 translation” value is “increase protein synthesis in a cell without full inhibition of ATF4 translation”.

In the experiment on ATF4, `O=C(COc1ccc(Cl)c(F)c1)N[C@H]1CC[C@H](NC(=O)c2cc3cc(Cl)ccc3o2)CC1` [Compound 17, trans-5-chloro-N-(4-(2-(4-chloro-3-fluorophenoxy)acetamido)cyclohexyl)benzofuran-2-carboxamide] had an IC50 of 0.00952 µM, an inhibition at 0.1 µM of 95% and an inhibition at 1 µM of 98%. Also, the activity at 0.1 µM with CHO cells (setting [1]) was 87%. The activity at 1 µM in the experiment on CHO cells (setting [2]) stood at 172%. Also, the activity at 1 µM in the experiment with CHO cells (setting [3]) stood at 93.2%.

In the experiment with ATF4, `O=C(NC1CCN(C[C@H](O)COc2ccc(Cl)c(F)c2)CC1)c1cc2cc(Cl)ccc2o1` (single isomer, unassigned) [Compound 149, (+)-5-chloro-N-(1-(3-(4-chloro-3-fluorophenoxy)-2-hydroxypropyl)piperidin-4-yl)benzofuran-2-carboxamide] registered an IC50 of 0.0299 µM, an inhibition at 0.1 µM of 62% and an inhibition at 1 µM of 96%. The activity at 0.1 µM with CHO cells (setting [1]) came out at 107%. For the same compound, in the experiment on CHO cells (setting [2]), the activity at 1 µM was 281%. In addition, the activity at 1 µM in the experiment with CHO cells (setting [3]) stood at 138%.

In the experiment on ATF4, `O=C(COc1ccc(Cl)c(F)c1)N[C@H]1CC[C@H](NCC(O)COc2ccc(Cl)c(F)c2)CC1` (stereo partly drawn) [Compound 2, trans-2-(4-chloro-3-fluorophenoxy)-N-(4-((3-(4-chloro-3-fluorophenoxy)-2-hydroxypropyl)amino)cyclohexyl)acetamide] came in with an IC50 of 0.163 µM, an inhibition at 0.1 µM of 40% and an inhibition at 1 µM of 56%. Further, in the experiment with CHO cells (setting [1]), the activity at 0.1 µM was found to be 42.5%. Moreover, the activity at 1 µM with CHO cells (setting [2]) was found to be 135%. In the experiment on CHO cells (setting [3]), the activity at 1 µM was determined as 136%.

Take `O=C(COc1ccc(Cl)cc1)N[C@H]1CC[C@H](NC(=O)[C@@H]2CNc3cc(Cl)ccc3O2)CC1` (single isomer, unassigned) [Compound 158, (+)-trans-6-chloro-N-(4-(2-(4-chlorophenoxy)acetamido)cyclohexyl)-3,4-dihydro-2H-benzo[b][1,4]oxazine-2-carboxamide]: in the experiment with ATF4, the IC50 is 0.0091 µM, the inhibition at 0.1 µM was 96% and the inhibition at 1 µM is 96%. The activity at 0.1 µM in the experiment on CHO cells (setting [1]) worked out at 86.8%. Also, the activity at 1 µM in the experiment on CHO cells (setting [2]) came out at 199%. Further, the activity at 1 µM in the experiment with CHO cells (setting [3]) stood at 168%.

In the case of `O=C(NC1CCN(CC(O)COc2ccc(Cl)c(F)c2)CC1)C1Cc2cc(Cl)ccc2O1` (stereo not drawn) [Compound 20, 5-chloro-N-(1-(3-(4-chloro-3-fluorophenoxy)-2-hydroxypropyl)piperidin-4-yl)-2,3-dihydrobenzofuran-2-carboxamide], in the experiment with ATF4, testing at 0.1 µM gave an inhibition of 14% and the inhibition at 1 µM worked out at 64%. For the same compound, in the experiment with CHO cells (setting [1]), the activity at 0.1 µM was 38.6%. For the same compound, the activity at 1 µM in the experiment on CHO cells (setting [2]) turned out to be 93.9%.

`O=C(COc1ccc(Cl)c(F)c1)N[C@H]1CC[C@H](NCC(O)COc2ccc(Cl)cc2)CC1` (stereo partly drawn) [Compound 10, trans-2-(4-chloro-3-fluorophenoxy)-N-(4-((3-(4-chlorophenoxy)-2-hydroxypropyl)amino)cyclohexyl)acetamide]: in the experiment on ATF4, the inhibition at 0.1 µM was 0% and the inhibition at 1 µM was 11%. Besides, the activity at 0.1 µM in the experiment on CHO cells (setting [1]) is 30.6%. In addition, in the experiment with CHO cells (setting [2]), the activity at 1 µM turned out to be 127%.

On to `O=C(COc1ccc(Cl)cc1)NC1CCN(CC(O)COc2ccc(Cl)cc2)CC1` (single isomer, unassigned; (-)) [Compound 15, (−)-2-(4-chlorophenoxy)-N-(1-(3-(4-chlorophenoxy)-2-hydroxypropyl)piperidin-4-yl)acetamide], for which, in the experiment on ATF4, the IC50 came to 0.0521 µM, the inhibition at 0.1 µM was found to be 77% and the inhibition at 1 µM worked out at 99%. In the experiment on CHO cells (setting [1]), the activity at 0.1 µM was 35.6%. In addition, the activity at 1 µM in the experiment on CHO cells (setting [2]) turned out to be 159%. In addition, in the experiment on CHO cells (setting [3]), the activity at 1 µM worked out at 68.3%.

For the compound `O=C(NC1CCN(CCCOc2ccc(Cl)c(F)c2)CC1)c1cc2cc(Cl)ccc2o1` [Compound 148, 5-chloro-N-(1-(3-(4-chloro-3-fluorophenoxy)propyl)piperidin-4-yl)benzofuran-2-carboxamide], in the experiment with ATF4, the inhibition at 0.1 µM stood at 30%. This compound yielded an inhibition at 1 µM in the experiment with ATF4 of 90%. Also, the activity at 0.1 µM with CHO cells (setting [1]) stood at 37.2%. In addition, the activity at 1 µM in the experiment on CHO cells (setting [2]) worked out at 250%; with CHO cells (setting [3]) it was 123%.
